Results published in ChEMBL document CHEMBL1131315, “Synthesis and anticonvulsant activity of 2(3H)-benzoxazolone and 2(3H)-benzothiazolone derivatives” (J Med Chem, 1998).
The source made the active and inactive calls. The calls are words filed in the database; no cut-off is given here.

What was measured:
[1] = The compound was tested for the toxic dose on oral administration. (Value in parenthesis indicate 95% confidence limits).; assay type: ADME; settings: rat
Mus musculus [2] = experiment: Inhibition of s.c. pentylenetetrazole induced seizure in mice following i.p. administration.; assay type: functional
[3] = The compound was tested for neurologic toxicity (rotarod) test for 4 hours in mice; active at 300 mg/kg; assay type: organism-based; parameters: dose 300 mg/kg; settings: mouse, in vivo
[4] = The compound was tested for neurologic toxicity (rotarod) test for 30 min in mice; active at 100 mg/kg; assay type: organism-based; parameters: dose 100 mg/kg; settings: mouse, in vivo, 0.5 h
Mus musculus [5] = experiment: The compound was tested for anticonvulsant activity in Maximal electroshock seizure test (MES) for 4 hr in mice(ip); active at 300 mg/kg; assay type: functional, organism-based; parameters: dose 300 mg/kg
Rattus norvegicus [6] = experiment: The compound was tested per os dose of 30 mg/kg for 0.5 hours for maximal electroshock test on rats; MES= 2/4; assay type: functional
Mus musculus [7] = experiment: The compound was tested for anticonvulsant activity in subcutaneous pentylenetetrazole seizure test (sc Met) for 30 min in mice; active at 100 mg/kg; assay type: functional, organism-based; parameters: dose 100 mg/kg
Rattus norvegicus [8] = experiment: The compound was tested per os dose of 30 mg/kg for 2 hours for maximal electroshock test on rats; MES= 0/4; assay type: functional
Rattus norvegicus [9] = experiment: The compound was tested per os dose of 30 mg/kg for 4 hours for maximal electroshock test on rats; MES= 0/4; assay type: functional
Mus musculus [10] = experiment: The compound was tested to inhibit 50% of induced maximal electroshock seizure in mice on ip administration; assay type: functional
[11] = The compound was tested for time of peak effect (TPE) in hours for its toxicity in mice on ip administration.; assay type: organism-based; settings: mouse, in vivo
Rattus norvegicus [12] = experiment: The compound was tested per os dose of 30 mg/kg for 2 hours for rotarod toxicity; 0/4; assay type: functional
Rattus norvegicus [13] = experiment: The compound was tested per os dose of 30 mg/kg for 0.5 hours for rotarod toxicity; 0/4; assay type: functional
[14] = Protective index value is the ratio between ED50 and TD50; assay type: functional
Rattus norvegicus [15] = experiment: The compound was tested per os dose of 30 mg/kg for 1 hour for rotarod toxicity; 0/4; assay type: functional
Mus musculus [16] = experiment: The anticonvulsant activity in subcutaneous pentylenetetrazole seizure test (sc Met) for 4 hr in mice; no activity or no toxicity at 300 mg/kg; assay type: functional, organism-based; parameters: dose 300 mg/kg
[17] = The compound was tested for time of peak effect (TPE) in hours for its activity in mice on ip administration.; assay type: ADME, organism-based; settings: mouse, in vivo
Rattus norvegicus [18] = experiment: The compound was tested per os dose of 30 mg/kg for 0.25 hours for rotarod toxicity; 0/4; assay type: functional
Rattus norvegicus [19] = experiment: The compound was tested per os dose of 30 mg/kg for 4 hours for rotarod toxicity; 0/4; assay type: functional
Rattus norvegicus [20] = experiment: The compound was tested per os dose of 30 mg/kg for 0.25 hours for maximal electroshock test on rats; MES= 4/4; assay type: functional
Mus musculus [21] = experiment: The compound was determined for the dose (mg/kg) by rotarod test at the time of peak neurotoxic effect in mice on ip administration; assay type: functional
Rattus norvegicus [22] = experiment: The compound was tested per os dose of 30 mg/kg for 1 hour for maximal electroshock test on rats; MES= 1/4; assay type: functional
Rattus norvegicus [23] = experiment: The compound was tested for the effective oral dose to inhibit 50% of the anticonvulsant in rats.(Value in parenthesis indicate 95% confidence limits).; assay type: functional
Mus musculus [24] = experiment: Anticonvulsant activity in Maximal electroshock seizure test at 100 mg/kg i.p. in mice.; assay type: functional, organism-based; parameters: dose 100 mg/kg
Rattus norvegicus [25] = experiment: The compound was tested per os dose of 30 mg/kg for 4 hours for maximal electroshock test (MES) on rats; MES= 0/4; assay type: functional
[26] = biological target: Sigma non-opioid intracellular receptor 1 (Homo sapiens) (UniProt Q99720); experiment: Ratio between the Ki(nM)values of sigma-2 and sigma-1; assay type: functional; settings: Cavia porcellus
Rattus norvegicus [27] = experiment: The compound was tested per os dose of 30 mg/kg for 2 hours for maximal electroshock test (MES) on rats; MES= 0/4; assay type: functional
Mus musculus [28] = experiment: The compound was tested for anticonvulsant activity in Maximal electroshock seizure test (MES) for 30 min in mice(ip); activity at 30 mg/kg; assay type: functional, organism-based; parameters: dose 30 mg/kg
Sigma 2 receptor = experiment: Affinity on sigma 2 receptor using [3H]- DTG as radioligand
Mus musculus [29] = experiment: Time of peak effect in mice following i.p. administration.; assay type: functional
Mus musculus [30] = experiment: The compound was tested for anticonvulsant activity in subcutaneous pentylenetetrazole seizure test (sc Met) for 4 hr in mice; no activity or toxicity at 300 mg/kg; assay type: functional, organism-based; parameters: dose 300 mg/kg
Rattus norvegicus [31] = experiment: The compound was tested for the effective oral dose to inhibit 50% of the anticonvulsant in rats.(value in parenthesis indicate 95% confidence limits).; assay type: functional
Mus musculus [32] = experiment: The compound was tested for anticonvulsant activity in Maximal electroshock seizure test (MES) for 4 hr in mice(ip); no activity or toxicity at 300 mg/kg; assay type: functional, organism-based; parameters: dose 300 mg/kg
[33] = The compound was tested for neurologic toxicity (rotarod) test for 4 hr in mice; no activity or toxicity at 300 mg/kg; assay type: organism-based; parameters: dose 300 mg/kg; settings: mouse, in vivo
Mus musculus [34] = experiment: The compound was tested to inhibit 50% of induced subcutaneous pentylenetetrazole seizure in mice on ip administration; assay type: functional
Mus musculus [35] = experiment: The compound was tested for anticonvulsant activity in subcutaneous pentylenetetrazole seizure test (sc Met) for 30 min in mice; no activity or toxicity at 300 mg/kg; assay type: functional, organism-based; parameters: dose 300 mg/kg
[36] = The compound was tested for neurologic toxicity (rotarod) test for 30 min in mice; no activity or toxicity at 300 mg/kg; assay type: organism-based; parameters: dose 300 mg/kg; settings: mouse, in vivo, 0.5 h
Rattus norvegicus [37] = experiment: The compound was tested per os dose of 30 mg/kg for 0.5 hours for maximal electroshock test (MES) on rats; MES= 2/4; assay type: functional
Rattus norvegicus [38] = experiment: The compound was tested per os dose of 30 mg/kg for 0.25 hours for maximal electroshock test on rats; MES= 3/4; assay type: functional
Rattus norvegicus [39] = experiment: The compound was tested per os dose of 30 mg/kg for 1 hour for maximal electroshock test (MES) on rats; MES= 1/4; assay type: functional
Mus musculus [40] = experiment: The compound was tested for anticonvulsant activity in Maximal electroshock seizure test (MES) for 4 hr in mice(ip); active at 100 mg/kg; assay type: functional, organism-based; parameters: dose 100 mg/kg
Rattus norvegicus [41] = experiment: The compound was tested per os dose of 25 mg/kg for 4 hours for rotarod toxicity; 0/4; assay type: functional
Rattus norvegicus [42] = experiment: The compound was tested per os dose of 25 mg/kg for 4 hours for maximal electroshock test on rats; MES= 2/4; assay type: functional
Rattus norvegicus [43] = experiment: The compound was tested per os dose of 25 mg/kg for 0.5 hours for rotarod toxicity; 0/4; assay type: functional
Mus musculus [44] = experiment: The compound was tested to inhibit 50% of induced maximal electroshock seizure in mice on ip administration.; assay type: functional
Rattus norvegicus [45] = experiment: The compound was tested per os dose of 25 mg/kg for 2 hours for maximal electroshock test on rats; MES= 3/4; assay type: functional
Mus musculus [46] = experiment: The compound was tested for anticonvulsant activity in subcutaneous pentylenetetrazole seizure test (sc Met) for 4 hr in mice; active at 300 mg/kg; assay type: functional, organism-based; parameters: dose 300 mg/kg
[47] = The compound was determined for the dose (mg/kg) by rotarod test at the time of peak neurotoxic effect in mice on ip administration.; assay type: ADME, organism-based; settings: mouse, in vivo
Rattus norvegicus [48] = experiment: The compound was tested per os dose of 25 mg/kg for 0.25 hours for rotarod toxicity; 0/4; assay type: functional
Rattus norvegicus [49] = experiment: The compound was tested per os dose of 25 mg/kg for 1 hour for maximal electroshock test on rats; MES= 4/4; assay type: functional
[50] = The compound was tested for neurologic toxicity (rotarod) test for 4 hours in mice; active at 30 mg/kg; assay type: organism-based; parameters: dose 30 mg/kg; settings: mouse, in vivo
Rattus norvegicus [51] = experiment: The compound was tested per os dose of 25 mg/kg for 2 hours for rotarod toxicity; 0/4; assay type: functional
Rattus norvegicus [52] = experiment: The compound was tested per os dose of 25 mg/kg for 0.25 hours for maximal electroshock test on rats; MES= 2/4; assay type: functional
Rattus norvegicus [53] = experiment: The compound was tested per os dose of 25 mg/kg for 1 hour for rotarod toxicity; 0/4; assay type: functional
Rattus norvegicus [54] = experiment: The compound was tested per os dose of 25 mg/kg for 0.5 hours for maximal electroshock test on rats; MES= 2/4; assay type: functional
[55] = The compound was tested for neurologic toxicity (rotarod) test for 30 min in mice; active at 30 mg/kg; assay type: organism-based; parameters: dose 30 mg/kg; settings: mouse, in vivo, 0.5 h
Mus musculus [56] = experiment: The compound was tested for anticonvulsant activity in Maximal electroshock seizure test for 30 min in mice(ip); active at 30 mg/kg; assay type: functional, organism-based; parameters: dose 30 mg/kg

Sequence of Sigma non-opioid intracellular receptor 1 (Homo sapiens) (Q99720 whole entry): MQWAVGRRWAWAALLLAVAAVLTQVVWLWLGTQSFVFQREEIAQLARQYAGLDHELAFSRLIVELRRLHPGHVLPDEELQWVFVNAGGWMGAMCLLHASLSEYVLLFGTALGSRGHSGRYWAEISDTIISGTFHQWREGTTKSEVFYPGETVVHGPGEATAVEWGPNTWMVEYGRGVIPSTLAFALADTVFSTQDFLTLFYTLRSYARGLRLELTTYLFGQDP

Cn1c(=O)oc2ccccc21
TD50 [1]: > 500 mg/kg | ED50 (Mus musculus [2]): 132 mg/kg | Rotarod toxicity [3]: active at 100 mg/kg | Rotarod toxicity [4]: active at 100 mg/kg | MES (Mus musculus [5]): active at 300 mg/kg | Protected/Tested (Rattus norvegicus [6]): 2 | scMet (Mus musculus [7]): active at 100 mg/kg | Protected/Tested (Rattus norvegicus [8]): 0 | Protected/Tested (Rattus norvegicus [9]): 0 | ED50 (Mus musculus [10]): 50.2 mg/kg | Toxicity [11]: 0.25 h | No. of animals exhibiting toxicity / Number of animals tested (Rattus norvegicus [12]): 0 | No. of animals exhibiting toxicity / Number of animals tested (Rattus norvegicus [13]): 0 | PI [14]: 16.4 | No. of animals exhibiting toxicity / Number of animals tested (Rattus norvegicus [15]): 0 | scMet (Mus musculus [16]): active at 100 mg/kg | Activity [17]: 0.25 h | No. of animals exhibiting toxicity / Number of animals tested (Rattus norvegicus [18]): 0 | No. of animals exhibiting toxicity / Number of animals tested (Rattus norvegicus [19]): 0 | Protected/Tested (Rattus norvegicus [20]): 4 | TD50 (Mus musculus [21]): 113 mg/kg | Protected/Tested (Rattus norvegicus [22]): 1 | ED50 (Rattus norvegicus [23]): 30.6 mg/kg | MES (Mus musculus [24]): active at 300 mg/kg

CCC(=O)c1ccc2c(c1)sc(=O)n2C(=O)CC
Activity (Rattus norvegicus [25]): 0 | Ratio [26]: 11 | Activity (Rattus norvegicus [27]): 0 | MES (Mus musculus [28]): activity at 30 mg/kg | ED50 (Mus musculus [10]): 19.4 mg/kg | Ki (Sigma 2 receptor): 670 nM | Activity (Mus musculus [29]): 0.25 h | scMet (Mus musculus [30]): No activity or toxicity at 300 mg/kg | ED50 (Rattus norvegicus [31]): 32.4 mg/kg | Toxicity [11]: 0.25 h | Activity (Rattus norvegicus [12]): 0 | Activity (Rattus norvegicus [13]): 0 | MES (Mus musculus [32]): activity at 30 mg/kg | Rotarod toxicity [33]: No activity or toxicity at 300 mg/kg | Activity (Rattus norvegicus [15]): 0 | ED50 (Mus musculus [34]): > 300 mg/kg | Activity (Rattus norvegicus [18]): 0 | Activity (Rattus norvegicus [19]): 0 | scMet (Mus musculus [35]): No activity or toxicity at 300 mg/kg | TD50 (Mus musculus [21]): 145 mg/kg | Rotarod toxicity [36]: No activity or toxicity at 300 mg/kg | Activity (Rattus norvegicus [37]): 2 | Activity (Rattus norvegicus [38]): 3 | Activity (Rattus norvegicus [39]): 1

Cn1c(=O)sc2ccccc21
TD50 [1]: 140 mg/kg | ED50 (Mus musculus [2]): > 100 mg/kg | MES (Mus musculus [40]): active at 100 mg/kg | No. of animals exhibiting toxicity / Number of animals tested (Rattus norvegicus [41]): 0 | scMet (Mus musculus [7]): active at 100 mg/kg | Activity (Mus musculus [29]): 0.25 h | Protected/Tested (Rattus norvegicus [42]): 2 | No. of animals exhibiting toxicity / Number of animals tested (Rattus norvegicus [43]): 0 | Toxicity [11]: 0.25 h | ED50 (Mus musculus [44]): 24.2 mg/kg | PI [14]: 8.6 | Protected/Tested (Rattus norvegicus [45]): 3 | scMet (Mus musculus [46]): active at 100 mg/kg | TD50 [47]: 55.2 mg/kg | No. of animals exhibiting toxicity / Number of animals tested (Rattus norvegicus [48]): 0 | Protected/Tested (Rattus norvegicus [49]): 4 | Rotarod toxicity [50]: active at 30 mg/kg | No. of animals exhibiting toxicity / Number of animals tested (Rattus norvegicus [51]): 0 | Protected/Tested (Rattus norvegicus [52]): 2 | No. of animals exhibiting toxicity / Number of animals tested (Rattus norvegicus [53]): 0 | ED50 (Rattus norvegicus [23]): 16.2 mg/kg | Protected/Tested (Rattus norvegicus [54]): 2 | Rotarod toxicity [55]: active at 30 mg/kg | MES (Mus musculus [56]): active at 100 mg/kg
